From ChEMBL document CHEMBL1909294, “Translating clinical findings into knowledge in drug safety evaluation--drug induced liver injury prediction system (DILIps)” (PLoS Comput Biol, 2011)

Legend:
Hepatotoxicity [1] = tested on: Hepatotoxicity;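 as to HepSE bilirubinemia: bilirubinemia hepatic side effect score drawn from the DILIps training data, a prediction system for drug-induced liver injury; call rule not given here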;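 as to HepSE cholecystitis: Cholecystitis-related hepatic side effect score drawn from the DILIps (drug-induced liver injury prediction) training data set; call rule not given here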;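 as to HepSE cirrhosis: cirrhosis hepatic side effect score taken from the DILIps (drug-induced liver injury prediction) training set; call rule not given here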; as to HepSE hepatic failure: call rule not given here;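 as to HepSE hepatomegaly: hepatic side effect score for hepatomegaly, taken from the training set of the DILIps drug-induced liver injury prediction system; call rule not given here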; as to HepSE liver disease: call rule not given here;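 as to HepSE liver function tests abnormal: hepatic side effect score taken from the DILIps (drug-induced liver injury prediction system) training data, here covering abnormal liver function test findings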
Hepatotoxicity [2] = tested on: Hepatotoxicity; remark: listed apart in the source;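 as to HepSE bilirubinemia: bilirubinemia hepatic side effect score drawn from the DILIps training data, a prediction system for drug-induced liver injury; call rule not given here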;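 as to HepSE cholecystitis: Cholecystitis-related hepatic side effect score drawn from the DILIps (drug-induced liver injury prediction) training data set; call rule not given here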;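 as to HepSE cirrhosis: cirrhosis hepatic side effect score taken from the DILIps (drug-induced liver injury prediction) training set; call rule not given here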; as to HepSE hepatic failure: call rule not given here;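 as to HepSE hepatomegaly: hepatic side effect score for hepatomegaly, taken from the training set of the DILIps drug-induced liver injury prediction system; call rule not given here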;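 as to HepSE liver function tests abnormal: hepatic side effect score taken from the DILIps (drug-induced liver injury prediction system) training data, here covering abnormal liver function test findings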
Hepatotoxicity [3] = tested on: Hepatotoxicity; remark: listed apart in the source;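 as to HepSE bilirubinemia: bilirubinemia hepatic side effect score drawn from the DILIps training data, a prediction system for drug-induced liver injury; call rule not given here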;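 as to HepSE cholecystitis: Cholecystitis-related hepatic side effect score drawn from the DILIps (drug-induced liver injury prediction) training data set; call rule not given here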;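 as to HepSE cirrhosis: cirrhosis hepatic side effect score taken from the DILIps (drug-induced liver injury prediction) training set; call rule not given here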; as to HepSE hepatic failure: call rule not given here;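 as to HepSE hepatomegaly: hepatic side effect score for hepatomegaly, taken from the training set of the DILIps drug-induced liver injury prediction system; call rule not given here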;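 as to HepSE liver function tests abnormal: hepatic side effect score taken from the DILIps (drug-induced liver injury prediction system) training data, here covering abnormal liver function test findings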
Hepatotoxicity [4] = tested on: Hepatotoxicity; remark: listed apart in the source;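 as to HepSE bilirubinemia: bilirubinemia hepatic side effect score drawn from the DILIps training data, a prediction system for drug-induced liver injury; call rule not given here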;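 as to HepSE cholecystitis: Cholecystitis-related hepatic side effect score drawn from the DILIps (drug-induced liver injury prediction) training data set; call rule not given here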;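 as to HepSE cirrhosis: cirrhosis hepatic side effect score taken from the DILIps (drug-induced liver injury prediction) training set; call rule not given here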; as to HepSE hepatic failure: call rule not given here;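 as to HepSE hepatomegaly: hepatic side effect score for hepatomegaly, taken from the training set of the DILIps drug-induced liver injury prediction system; call rule not given here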;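 as to HepSE liver function tests abnormal: hepatic side effect score taken from the DILIps (drug-induced liver injury prediction system) training data, here covering abnormal liver function test findings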
Hepatotoxicity [5] = tested on: Hepatotoxicity; remark: listed apart in the source; as to HepSE hepatic failure: call rule not given here
Hepatotoxicity [6] = tested on: Hepatotoxicity; remark: listed apart in the source; as to HepSE hepatic failure: call rule not given here
Hepatotoxicity [7] = tested on: Hepatotoxicity; remark: listed apart in the source
Hepatotoxicity [8] = tested on: Hepatotoxicity; remark: listed apart in the source
Hepatotoxicity [9] = tested on: Hepatotoxicity; remark: listed apart in the source
Hepatotoxicity [10] = tested on: Hepatotoxicity; remark: listed apart in the source
Hepatotoxicity [11] = tested on: Hepatotoxicity; remark: listed apart in the source
Hepatotoxicity [12] = tested on: Hepatotoxicity; remark: listed apart in the source
Hepatotoxicity [13] = tested on: Hepatotoxicity; remark: listed apart in the source
Hepatotoxicity [14] = tested on: Hepatotoxicity; remark: listed apart in the source

Row | Compound | HepSE_hepatic failure (Hepatotoxicity [1]) | HepSE_bilirubinemia (Hepatotoxicity [2]) | HepSE_hepatomegaly (Hepatotoxicity [3]) | HepSE_hepatic necrosis (Hepatotoxicity [4]) | HepSE_cholecystitis (Hepatotoxicity [5]) | HepSE_liver function tests abnormal (Hepatotoxicity [6]) | HepSE_cirrhosis (Hepatotoxicity [7]) | HepSE_liver disease (Hepatotoxicity [8]) | HepSE_elevated liver function tests (Hepatotoxicity [9]) | HepSE_hepatitis (Hepatotoxicity [10]) | HepSE_liver fatty (Hepatotoxicity [11]) | HepSE_Combined Scores (Hepatotoxicity [12]) | HepSE_cholelithiasis (Hepatotoxicity [13]) | HepSE_jaundice (Hepatotoxicity [14]) | also measured
1 | O=C1CN(/N=C/c2ccc(-c3ccc([N+](=O)[O-])cc3)o2)C(O)=N1 [DANTROLENE] | 1 | 0 | 0 | 0 | 0 | 0 | 0 | 0 | 0 | 1 | 0 | 2 | 0 | 0 | –
2 | CC(=O)N1CCN(c2ccc(OCC3COC(Cn4ccnc4)(c4ccc(Cl)cc4Cl)O3)cc2)CC1 (configuration not stated) [KETOCONAZOLE] | 0 | 0 | 0 | 0 | 0 | 0 | 0 | 0 | 0 | 0 | 0 | 0 | 0 | 0 | –
3 | CC1(C)S[C@@H]2[C@H](NC(=O)C(C(=O)O)c3ccccc3)C(=O)N2[C@H]1C(=O)O (some centres not stated) [CARBENICILLIN] | 0 | 0 | 0 | 0 | 0 | 0 | 0 | 0 | 0 | 0 | 0 | 0 | 0 | 0 | –
4 | Nc1ccn([C@@H]2O[C@H](CO)[C@@H](O)C2(F)F)c(=O)n1 [GEMCITABINE] | 1 | 0 | 0 | 0 | 0 | 0 | 0 | 0 | 0 | 0 | 0 | 1 | 0 | 0 | –
5 | Nc1cc(-c2ccncc2)c[nH]c1=O [INAMRINONE] | 0 | 0 | 0 | 0 | 0 | 0 | 0 | 0 | 0 | 0 | 0 | 1 | 0 | 1 | –
6 | CCCCC1=NC2(CCCC2)C(=O)N1Cc1ccc(-c2ccccc2-c2nnn[nH]2)cc1 [IRBESARTAN] | 0 | 0 | 0 | 0 | 0 | 0 | 0 | 0 | 1 | 1 | 0 | 3 | 0 | 1 | –
7 | CC(C)(C)NCC(O)c1ccc(O)c(CO)n1 (configuration not stated) [PIRBUTEROL] | 0 | 0 | 0 | 0 | 0 | 0 | 0 | 0 | 0 | 0 | 0 | 0 | 0 | 0 | –
8 | O=C1c2c(O)ccc(O)c2C(=O)c2c(NCCNCCO)ccc(NCCNCCO)c21 [MITOXANTRONE] | 0 | 0 | 0 | 0 | 0 | 0 | 0 | 0 | 0 | 1 | 0 | 2 | 0 | 1 | –
9 | O=C(O)CN(CCN(CC(=O)O)CC(=O)O)CC(=O)O [EDETIC ACID] | – | – | – | – | – | – | – | – | – | – | – | – | – | – | HepSE_hepatic failure (Hepatotoxicity [1]; Liver): 0; HepSE_bilirubinemia (Hepatotoxicity [2]; Liver): 0; HepSE_hepatomegaly (Hepatotoxicity [3]; Liver): 0; HepSE_hepatic necrosis (Hepatotoxicity [4]; Liver): 0; HepSE_cholecystitis (Hepatotoxicity [5]; Liver): 0; HepSE_liver function tests abnormal (Hepatotoxicity [6]; Liver): 0; HepSE_cirrhosis (Hepatotoxicity [7]; Liver): 0; HepSE_liver disease (Hepatotoxicity [8]; Liver): 0; HepSE_elevated liver function tests (Hepatotoxicity [9]; Liver): 0; HepSE_hepatitis (Hepatotoxicity [10]; Liver): 0; HepSE_liver fatty (Hepatotoxicity [11]; Liver): 0; HepSE_Combined Scores (Hepatotoxicity [12]; Liver): 0; HepSE_cholelithiasis (Hepatotoxicity [13]; Liver): 0; HepSE_jaundice (Hepatotoxicity [14]; Liver): 0
10 | CCOC(=O)C1=C[C@@H](OC(CC)CC)[C@H](NC(C)=O)[C@@H](N)C1 [OSELTAMIVIR] | 1 | 0 | 0 | 0 | 0 | 1 | 0 | 0 | 0 | 1 | 0 | 3 | 0 | 0 | –
11 | c1ccc2c(CC3=NCCN3)cccc2c1 [NAPHAZOLINE] | 0 | 0 | 0 | 0 | 0 | 0 | 0 | 0 | 0 | 0 | 0 | 0 | 0 | 0 | –
12 | GADOTERIDOL | 0 | 0 | 0 | 0 | 0 | 0 | 0 | 0 | 0 | 0 | 0 | 0 | 0 | 0 | –
13 | N[C@@H](C(=O)N[C@@H]1C(=O)N2C(C(=O)O)=C(Cl)CC[C@H]12)c1ccccc1 [LORACARBEF ANHYDROUS] | 0 | 0 | 0 | 0 | 0 | 0 | 0 | 0 | 0 | 0 | 0 | 1 | 0 | 1 | –
